According to ChEMBL document CHEMBL4765227, “Hit to lead optimization of a series of N-[4-(1,3-benzothiazol-2-yl)phenyl]acetamides as monoacylglycerol lipase inhibitors with potential anticancer activity” (Eur J Med Chem, 2016):

How the values were obtained:
Assay type in all cases: functional
Settings in all cases: read-out: GI
UACC-62 = assay: Growth inhibition of human UACC-62 cells at 10 uM incubated for 48 hrs by sulforhodamine B assay relative to control
OVCAR-5 = assay: Growth inhibition of human OVCAR-5 cells at 10 uM incubated for 48 hrs by sulforhodamine B assay relative to control
U-251 = assay: Growth inhibition of human U-251 cells at 10 uM incubated for 48 hrs by sulforhodamine B assay relative to control
SK-MEL-5 = assay: Growth inhibition of human SK-MEL-5 cells at 10 uM incubated for 48 hrs by sulforhodamine B assay relative to control
RXF 393 = assay: Growth inhibition of human RXF 393 cells at 10 uM incubated for 48 hrs by sulforhodamine B assay relative to control
HCT-116 = assay: Growth inhibition of human HCT-116 cells at 10 uM incubated for 48 hrs by sulforhodamine B assay relative to control
M14 = assay: Growth inhibition of human M14 cells at 10 uM incubated for 48 hrs by sulforhodamine B assay relative to control
RPMI-8226 = assay: Growth inhibition of human RPMI-8226 cells at 10 uM incubated for 48 hrs by sulforhodamine B assay relative to control
DU-145 = assay: Growth inhibition of human DU-145 cells at 10 uM incubated for 48 hrs by sulforhodamine B assay relative to control
CAKI-1 = assay: Growth inhibition of human CAKI-1 cells at 10 uM incubated for 48 hrs by sulforhodamine B assay relative to control
HT-29 = assay: Growth inhibition of human HT-29 cells at 10 uM incubated for 48 hrs by sulforhodamine B assay relative to control
CCRF-CEM = assay: Growth inhibition of human CCRF-CEM cells at 10 uM incubated for 48 hrs by sulforhodamine B assay relative to control
COLO 205 = assay: Growth inhibition of human COLO 205 cells at 10 uM incubated for 48 hrs by sulforhodamine B assay relative to control
MOLT-4 = assay: Growth inhibition of human MOLT-4 cells at 10 uM incubated for 48 hrs by sulforhodamine B assay relative to control
SNB-19 = assay: Growth inhibition of human SNB-19 cells at 10 uM incubated for 48 hrs by sulforhodamine B assay relative to control
UACC-257 = assay: Growth inhibition of human UACC-257 cells at 10 uM incubated for 48 hrs by sulforhodamine B assay relative to control
NCI/ADR-RES = assay: Growth inhibition of human NCI/ADR-RES cells at 10 uM incubated for 48 hrs by sulforhodamine B assay relative to control
MCF7 = assay: Growth inhibition of human MCF7 cells at 10 uM incubated for 48 hrs by sulforhodamine B assay relative to control
HCT-15 = assay: Growth inhibition of human HCT-15 cells at 10 uM incubated for 48 hrs by sulforhodamine B assay relative to control
NCI-H226 = assay: Growth inhibition of human NCI-H226 cells at 10 uM incubated for 48 hrs by sulforhodamine B assay relative to control
HCC 2998 = assay: Growth inhibition of human HCC 2998 cells at 10 uM incubated for 48 hrs by sulforhodamine B assay relative to control
SK-OV-3 = assay: Growth inhibition of human SK-OV-3 cells at 10 uM incubated for 48 hrs by sulforhodamine B assay relative to control
TK-10 = assay: Growth inhibition of human TK-10 cells at 10 uM incubated for 48 hrs by sulforhodamine B assay relative to control
LOX IMVI = assay: Growth inhibition of human LOX IMVI cells at 10 uM incubated for 48 hrs by sulforhodamine B assay relative to control
Hs-578T = assay: Growth inhibition of human Hs-578T cells at 10 uM incubated for 48 hrs by sulforhodamine B assay relative to control
HL-60(TB) = assay: Growth inhibition of human HL-60(TB) cells at 10 uM incubated for 48 hrs by sulforhodamine B assay relative to control
MDA-MB-468 = assay: Growth inhibition of human MDA-MB-468 cells at 10 uM incubated for 48 hrs by sulforhodamine B assay relative to control
HOP-92 = assay: Growth inhibition of human HOP-92 cells at 10 uM incubated for 48 hrs by sulforhodamine B assay relative to control
SNB-75 = assay: Growth inhibition of human SNB-75 cells at 10 uM incubated for 48 hrs by sulforhodamine B assay relative to control
A549 = assay: Growth inhibition of human A549/ATCC cells at 10 uM incubated for 48 hrs by sulforhodamine B assay relative to control
T47D = assay: Growth inhibition of human T47D cells at 10 uM incubated for 48 hrs by sulforhodamine B assay relative to control
PC-3 = assay: Growth inhibition of human PC-3 cells at 10 uM incubated for 48 hrs by sulforhodamine B assay relative to control
SR = assay: Growth inhibition of human SR cells at 10 uM incubated for 48 hrs by sulforhodamine B assay relative to control
HOP-62 = assay: Growth inhibition of human HOP-62 cells at 10 uM incubated for 48 hrs by sulforhodamine B assay relative to control
SF-295 = assay: Growth inhibition of human SF-295 cells at 10 uM incubated for 48 hrs by sulforhodamine B assay relative to control
Malme-3M = assay: Growth inhibition of human Malme-3M cells at 10 uM incubated for 48 hrs by sulforhodamine B assay relative to control
OVCAR-3 = assay: Growth inhibition of human OVCAR-3 cells at 10 uM incubated for 48 hrs by sulforhodamine B assay relative to control
IGROV-1 = assay: Growth inhibition of human IGROV-1 cells at 10 uM incubated for 48 hrs by sulforhodamine B assay relative to control
SF-268 = assay: Growth inhibition of human SF-268 cells at 10 uM incubated for 48 hrs by sulforhodamine B assay relative to control
BT-549 = assay: Growth inhibition of human BT-549 cells at 10 uM incubated for 48 hrs by sulforhodamine B assay relative to control
ACHN = assay: Growth inhibition of human ACHN cells at 10 uM incubated for 48 hrs by sulforhodamine B assay relative to control
786-0 = assay: Growth inhibition of human 786-0 cells at 10 uM incubated for 48 hrs by sulforhodamine B assay relative to control
OVCAR-4 = assay: Growth inhibition of human OVCAR-4 cells at 10 uM incubated for 48 hrs by sulforhodamine B assay relative to control
SK-MEL-28 = assay: Growth inhibition of human SK-MEL-28 cells at 10 uM incubated for 48 hrs by sulforhodamine B assay relative to control

## O=C(CNc1nc(-c2ccc(Cl)cc2)cs1)Nc1ccc(-c2nc3ccccc3s2)cc1
UACC-62
  inhibition of growth at 10 µM: 8.08%
OVCAR-5
  inhibition of growth at 10 µM: 9.63%
U-251
  inhibition of growth at 10 µM: 8.44%
SK-MEL-5
  inhibition of growth at 10 µM: 12.3%
RXF 393
  inhibition of growth at 10 µM: -6.02%
HCT-116
  inhibition of growth at 10 µM: 4.49%
M14
  inhibition of growth at 10 µM: 11.8%
RPMI-8226
  inhibition of growth at 10 µM: 12.6%
DU-145
  inhibition of growth at 10 µM: 5.04%
CAKI-1
  inhibition of growth at 10 µM: 5.79%
HT-29
  inhibition of growth at 10 µM: -8.34%
CCRF-CEM
  inhibition of growth at 10 µM: 7.04%
COLO 205
  inhibition of growth at 10 µM: 6.21%
MOLT-4
  inhibition of growth at 10 µM: 7.26%
SNB-19
  inhibition of growth at 10 µM: 1.83%
UACC-257
  inhibition of growth at 10 µM: -0.39%
NCI/ADR-RES
  inhibition of growth at 10 µM: 5.81%
MCF7
  inhibition of growth at 10 µM: 70.2%
HCT-15
  inhibition of growth at 10 µM: -10.2%
NCI-H226
  inhibition of growth at 10 µM: 19.7%
HCC 2998
  inhibition of growth at 10 µM: 2.47%
SK-OV-3
  inhibition of growth at 10 µM: 4.97%
TK-10
  inhibition of growth at 10 µM: 33.5%
LOX IMVI
  inhibition of growth at 10 µM: 4.39%
Hs-578T
  inhibition of growth at 10 µM: 8.73%
HL-60(TB)
  inhibition of growth at 10 µM: 0.71%
MDA-MB-468
  inhibition of growth at 10 µM: 140%
HOP-92
  inhibition of growth at 10 µM: 7.09%
SNB-75
  inhibition of growth at 10 µM: 22.2%
A549
  inhibition of growth at 10 µM: 0.99%
T47D
  inhibition of growth at 10 µM: 43.9%
PC-3
  inhibition of growth at 10 µM: 9.25%
SR
  inhibition of growth at 10 µM: 10.3%
HOP-62
  inhibition of growth at 10 µM: -6.21%
SF-295
  inhibition of growth at 10 µM: 1.37%
Malme-3M
  inhibition of growth at 10 µM: -1.86%
OVCAR-3
  inhibition of growth at 10 µM: 5.97%
IGROV-1
  inhibition of growth at 10 µM: 40.9%
SF-268
  inhibition of growth at 10 µM: 9.23%
BT-549
  inhibition of growth at 10 µM: -6.9%
ACHN
  inhibition of growth at 10 µM: -5.08%
786-0
  inhibition of growth at 10 µM: -9.09%
OVCAR-4
  inhibition of growth at 10 µM: 29.5%
SK-MEL-28
  inhibition of growth at 10 µM: -10.9%

## O=C(CNc1nc2ccccc2s1)Nc1ccc(-c2nc3ccccc3s2)cc1
UACC-62
  inhibition of growth at 10 µM: 5.38%
OVCAR-5
  inhibition of growth at 10 µM: 1.6%
U-251
  inhibition of growth at 10 µM: 10.9%
SK-MEL-5
  inhibition of growth at 10 µM: -2.93%
RXF 393
  inhibition of growth at 10 µM: -12.5%
HCT-116
  inhibition of growth at 10 µM: 1.08%
M14
  inhibition of growth at 10 µM: -15.4%
RPMI-8226
  inhibition of growth at 10 µM: -7.46%
DU-145
  inhibition of growth at 10 µM: -5.64%
CAKI-1
  inhibition of growth at 10 µM: -0.18%
HT-29
  inhibition of growth at 10 µM: -8.9%
CCRF-CEM
  inhibition of growth at 10 µM: -10.5%
COLO 205
  inhibition of growth at 10 µM: -11.7%
MOLT-4
  inhibition of growth at 10 µM: 15.8%
SNB-19
  inhibition of growth at 10 µM: -0.11%
UACC-257
  inhibition of growth at 10 µM: -1.9%
NCI/ADR-RES
  inhibition of growth at 10 µM: -1.94%
MCF7
  inhibition of growth at 10 µM: 75.2%
HCT-15
  inhibition of growth at 10 µM: -4.63%
NCI-H226
  inhibition of growth at 10 µM: 7.62%
HCC 2998
  inhibition of growth at 10 µM: 7.87%
SK-OV-3
  inhibition of growth at 10 µM: -7.21%
TK-10
  inhibition of growth at 10 µM: 3.3%
LOX IMVI
  inhibition of growth at 10 µM: 24.2%
Hs-578T
  inhibition of growth at 10 µM: -0.48%
HL-60(TB)
  inhibition of growth at 10 µM: 0.87%
MDA-MB-468
  inhibition of growth at 10 µM: 118%
HOP-92
  inhibition of growth at 10 µM: 0.18%
SNB-75
  inhibition of growth at 10 µM: 1.04%
A549
  inhibition of growth at 10 µM: -0.04%
T47D
  inhibition of growth at 10 µM: 26.1%
PC-3
  inhibition of growth at 10 µM: 4.99%
SR
  inhibition of growth at 10 µM: 8.72%
HOP-62
  inhibition of growth at 10 µM: -4.25%
SF-295
  inhibition of growth at 10 µM: -7.45%
Malme-3M
  inhibition of growth at 10 µM: 1.87%
OVCAR-3
  inhibition of growth at 10 µM: 2.04%
IGROV-1
  inhibition of growth at 10 µM: 33.4%
SF-268
  inhibition of growth at 10 µM: 7.92%
BT-549
  inhibition of growth at 10 µM: -6.3%
ACHN
  inhibition of growth at 10 µM: -6.65%
786-0
  inhibition of growth at 10 µM: -1.86%
OVCAR-4
  inhibition of growth at 10 µM: -1.76%
SK-MEL-28
  inhibition of growth at 10 µM: -13.3%
